What was measured:
Assay in all cases: relative viability (nuclei count vs DMSO), 5 days (fraction); higher = more cells survive
RU-SKI 43 + Luminespib = compound: CC[C@@H](C)CNCC(=O)N1CCC2=C([C@@H]1COC3=CC=CC(=C3)C)C=CS2 [RU-SKI 43] + CCNC(=O)c1noc(-c2cc(C(C)C)c(O)cc2O)c1-c1ccc(CN2CCOCC2)cc1 [Luminespib] (partner 0.01 µM)
Method in brief: (§1)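 After 5 days of treatment, lung cancer cells in 1536-well plates were fixed and stained in a single step (final 0.05% Triton X-100, 1% formaldehyde, 1 ug/ml Hoechst) and their nuclei counted on 4× images. Treatment had been applied by pin tool the day after seeding as one drug alone or as a fixed anchor-drug dose with five library-drug doses (not always all listed) in √10 steps. Relative viability is the nuclei count of treated wells divided by that of vehicle wells, and values are medians of duplicate plates.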

RU-SKI 43 + Crizotinib = compound: CC[C@@H](C)CNCC(=O)N1CCC2=C([C@@H]1COC3=CC=CC(=C3)C)C=CS2 [RU-SKI 43] + C[C@@H](Oc1cc(-c2cnn(C3CCNCC3)c2)cnc1N)c1c(Cl)ccc(F)c1Cl [Crizotinib] (partner 1 µM)
Method in brief: as §1

RU-SKI 43 + AZD7762 = compound: CC[C@@H](C)CNCC(=O)N1CCC2=C([C@@H]1COC3=CC=CC(=C3)C)C=CS2 [RU-SKI 43] + NC(=O)Nc1cc(-c2cccc(F)c2)sc1C(=O)N[C@H]1CCCNC1 [AZD7762] (partner 0.2 µM)
Method in brief: as §1

Irinotecan + Lapatinib = compound: CCc1c2c(nc3ccc(OC(=O)N4CCC(N5CCCCC5)CC4)cc13)-c1cc3c(c(=O)n1C2)COC(=O)[C@]3(O)CC [Irinotecan] + CS(=O)(=O)CCNCc1ccc(-c2ccc3ncnc(Nc4ccc(OCc5cccc(F)c5)c(Cl)c4)c3c2)o1 [Lapatinib] (partner 2 µM)
Method in brief: as §1

| Cell Line | relative viability (RU-SKI 43 + Luminespib; first compound 0.1 µM) | relative viability (RU-SKI 43 + Luminespib; first compound 0.3162 µM) | relative viability (RU-SKI 43 + Luminespib; first compound 1 µM) | relative viability (RU-SKI 43 + Luminespib; first compound 3.162 µM) | relative viability (RU-SKI 43 + Luminespib; first compound 10 µM) | relative viability (RU-SKI 43 + Crizotinib; first compound 0.1 µM) | relative viability (RU-SKI 43 + Crizotinib; first compound 0.3162 µM) | relative viability (RU-SKI 43 + Crizotinib; first compound 1 µM) | relative viability (RU-SKI 43 + Crizotinib; first compound 3.162 µM) | relative viability (RU-SKI 43 + Crizotinib; first compound 10 µM) | relative viability (RU-SKI 43 + AZD7762; first compound 0.1 µM) | relative viability (RU-SKI 43 + AZD7762; first compound 0.3162 µM) | relative viability (RU-SKI 43 + AZD7762; first compound 1 µM) | relative viability (RU-SKI 43 + AZD7762; first compound 3.162 µM) | relative viability (RU-SKI 43 + AZD7762; first compound 10 µM) | relative viability (Irinotecan + Lapatinib; first compound 0.6325 µM) | relative viability (Irinotecan + Lapatinib; first compound 2 µM) | relative viability (Irinotecan + Lapatinib; first compound 6.325 µM) | relative viability (Irinotecan + Lapatinib; first compound 20 µM) |
| --- | --- | --- | --- | --- | --- | --- | --- | --- | --- | --- | --- | --- | --- | --- | --- | --- | --- | --- | --- |
| NCI-H1666 | 0.941 | 1.03 | 1.03 | 0.942 | 0.833 | 0.966 | 1.01 | 0.971 | 0.945 | 0.571 | 0.884 | 0.754 | 0.956 | 0.774 | 0.78 | 0.466 | 0.556 | 0.35 | 0.223 |
| HARA | 0.687 | 0.765 | 0.918 | 0.974 | 0.672 | 1.16 | 0.971 | 1.08 | 1.18 | 0.975 | 0.469 | 0.243 | 0.301 | 0.357 | 0.279 | 0.749 | 0.339 | 0.17 | 0.118 |
| NCI-H661 | 0.942 | 1.03 | 0.947 | 0.932 | 0.898 | 0.887 | 0.943 | 0.984 | 0.942 | 0.938 |  |  |  |  |  | 0.478 | 0.357 | 0.314 | 0.296 |
| NCI-H2087 | 0.158 | 0.173 | 0.193 | 0.145 | 0.131 | 0.837 | 1.12 | 0.915 | 0.783 | 0.733 | 1.33 | 1.65 | 1.3 | 1.36 | 1.31 | 0.299 | 0.3 | 0.168 | 0.205 |
| LC-2-ad | 0.987 | 1.1 | 1 | 1.04 | 0.956 | 0.443 | 0.392 | 0.535 |  | 0.43 | 0.899 | 0.945 | 0.95 | 0.896 | 0.857 | 0.416 | 0.291 | 0.172 | 0.132 |
| NCI-H2405 | 0.639 | 0.474 | 0.543 | 0.736 | 0.486 | 0.863 | 0.933 | 0.811 | 0.852 | 0.807 | 0.801 | 0.83 | 0.876 | 0.84 | 0.452 |  | 1.05 | 0.333 | 0.101 |
| HCC-44 | 1.02 |  | 1.16 | 1.02 | 0.894 | 0.778 | 0.785 | 0.846 | 0.796 | 0.806 | 0.995 | 1.04 | 1.08 | 1.06 | 1.01 | 0.96 | 0.73 | 0.273 | 0.382 |
| NCI-H3122 | 0.0907 | 0.0845 | 0.103 | 0.0966 | 0.0897 | 0.256 | 0.257 | 0.249 | 0.287 | 0.244 | 0.957 | 1.27 | 1.01 | 1.15 | 0.95 | 0.994 | 0.529 | 0.24 | 0.274 |
| LU99A | 0.195 | 0.24 | 0.211 | 0.259 | 0.192 | 0.542 | 0.565 | 0.595 | 0.6 | 0.469 | 0.255 | 0.377 | 0.264 | 0.267 | 0.343 | 0.367 | 0.309 | 0.203 | 0.197 |

From the supplement of paper PMC10307832
